The source of these data is PMC10889159, “Synthesis and Antitumor Activity Evaluation of Novel Echinatin Derivatives with a 1,3,4-Oxadiazole Moiety” (International Journal of Molecular Sciences, 2024).

For data set [1], the system named is four cancer cell lines (K562, KU812, HT-29, HCT116). As to the kind of experiment: CCK8 antiproliferative assay, summary over the four cancer cell lines. It is filed as cell-based. To be noted: Homo sapiens; range over K562, KU812, HT-29, HCT116; read-out: IC50 against the four cancer cell lines. The method, then:
(§1) For all biological assays, all of the synthesized compounds were dissolved in DMSO. The cytotoxicity of all of the target compounds against the HCT116, K562, KU812, and HT-29 cells was determined by an CCK8 assay in vitro using adriamycin and echinatin as the controls. About 3000 cells per well were seeded in a 96-well plate and incubated for 24 h. Then, the cells were stimulated with different concentrations of test compounds for 48 h. The CCK8 solution (100 µL 0.5 mg/mL^−1) was added to each well, and the cells were incubated for another 4 h. Then, the absorbance of the samples was measured at 450 nm. The IC50 values were calculated according to the Logit method after obtaining the inhibitory rate. All experiments were repeated three times.
A general note: Formazan colour is commonly taken as a measure of viable cells.

The test system of the next data set is KU812. As to the kind of experiment: CCK8 antiproliferative assay, KU812. The format is cell-based. As to conditions: Homo sapiens, CCK8, 48 h, mean ± SD, n = 3. The method, then: as §1
Another data set has as its system HT-29. In words: CCK8 antiproliferative assay, HT-29. The format is cell-based. To be noted: Homo sapiens, CCK8, 48 h, mean ± SD, n = 3. The method, then: as §1
A further data set relates to CCC-HIE-2. In words: Cytotoxicity toward CCC-HIE-2 cells. The format is cell-based, human.
A further data set has as its system HCT116. In words: CCK8 antiproliferative assay, HCT116. The format is cell-based. As to conditions: Homo sapiens, HCT-116; CCK8, 48 h, mean ± SD, n = 3. The method, then:
as §1

For data set [2], the system named is HCT116 cells. In words: Cell colony formation assay. It is filed as cell-based, human. As to conditions: 1.25, 2.5, 5 µM, 14 d. The method, then: To investigate the effects of echinatin derivatives on the clonogenic potential of HCT116 cells, the colony formation assay was performed as previously described. HCT116 cells were seeded into 6-well plates at 37 °C with 5% CO2 for 24 h and then treated with Compound T4 and echinatin at various concentrations (0 µM, 1.25 µM, 2.5 µM, and 5 µM) for 14 d. Then, cells were stained with crystal violet solution and clone numbers were counted directly with the naked eye.

Data set [3] deals with HCT116 cells. As to the kind of experiment: Wound healing assay. It is filed as cell-based, human. As to conditions: 24 h, serum-free medium. The method, then:
Five lines were drawn evenly on the back of the 6-well plate and transferred HCT116 cells (1 × 10^6/well) in a 6-well plate until a uniform monolayer of cells formed at the bottom of the 6-well plate. Then, we drew lines on the cells using a 200 μL pipette tip. We then carefully washed the damaged cell monolayer with PBS, then treated with different concentrations of Compound T4, and incubated in serum-free medium for 24 h. We then used an inverted microscope to take photos of the 6-hole plate at the 0 and 24 h time points and used ImageJ for processing and analysis.

For a further data set, the system named is K562. As to the kind of experiment: CCK8 antiproliferative assay, K562. It is filed as cell-based. As to conditions: Homo sapiens, CCK8, 48 h, mean ± SD, n = 3. How it is done: as §1
Data set [4] concerns HCT116 cells. As to the kind of experiment: Intracellular ROS generation (DCFH-DA, flow cytometry). It is filed as cell-based, human. To be noted: escalating concentrations. How it is done: Approximately 4 × 10^5 cells per well were seeded in a 6-well plate and incubated for 12 h, then the discarded medium was replaced with fresh medium containing different concentrations of Compound T4 (0 μM, 0.625 μM, 1.25 μM, 2.5 μM, and 5 μM) for 48 h. ROS production was detected by using the peroxide-sensitive fluorescent probe DCFH-DA. After treatment with different concentrations of T4, the cells were incubated with 10 µg/mL DCFH-DA at 37 °C for 20 min. Then, the cells were harvested. Samples were analyzed by flow cytometry (FACS Calibur, Becton-Dickinson, East Rutherford, NJ, USA).
A general note: A flow cytometer gives signals particle by particle.

In data set [5] the test system is HCT116 cells. In words: Cell cycle analysis (PI staining, flow cytometry). The format is cell-based, human. The method, then:
The effects of Compound T4 on cell cycle progression were verified by using a standard (PI) staining procedure followed by flow cytometry analysis. HCT116 cells were seeded in 6-well plates and incubated for 24 h until the cells adhered. […] Control cells and treated cells were washed twice with PBS, centrifuged (1000 rpm, 5 min), and collected at a final concentration of 50,000 cells. Then, a single cell suspension was fixed in ice-cold 70% (v/v) ethanol overnight at 4 °C. The cells were washed again with PBS. A total of 100 μL RNase A was added and the cells were incubated at 37 °C for 30 min. The cell DNA was stained with 400 μL PI for 30 min. Data collection and analysis were carried out using a flow cytometer (Beckman Coulter cytoFLEX, USA).

Data set [6] concerns HCT116 cells. As to the kind of experiment: Western blot of c-KIT downstream proteins and caspase-3. It is filed as cell-based, human. To be noted: 48 h. The method, then:
HCT116 cells were seeded at a density of 4 × 10^5 cells per well and treated with various concentrations of Compound T4 (0, 1.25, 2.5, and 5 µM) for 48 h. After this, cells were collected and washed twice with ice-cold DPBS. The pellets were resuspended in a total protein extraction buffer (20 mM HEPES, 350 mM NaCl, 20% glycerol, 1% NP-40, 1 mM MgCl2, 0.5 mM EDTA, 0.1 mM EGTA, 0.1 mM DTT, 0.1 mM PMSF) containing a protease inhibitor cocktail and incubated on ice for 30 min with intermittent mixing. The protein concentration was measured using the Bradford reagent (Bio-Rad Laboratories Inc., Hercules, CA, USA). An equal amount (20 µg) of protein was loaded on 10% poly acrylamide gels and transferred to a nitrocellulose membrane. After blocking with 5% skimmed milk, the membrane was incubated at 4 °C overnight with specific primary antibodies. The membrane was washed and incubated at room temperature for 1 h with secondary antibodies conjugated with horseradish peroxidase (HRP). Finally, the immunoblot was developed for visualization using a chemiluminescence kit. Primary antibodies for Cleaved-caspase 3, MEK, p-MEK, Erk1/2, p-Erk1/2, mTOR, Akt, p-Akt, and GAPDH and all secondary antibodies were obtained from Santa Cruz Biotechnology (Santa Cruz, CA, USA).

In another data set the target is c-KIT (Homo sapiens, UniProt P10721). In words: Biochemical c-KIT activity assay (ADP-Glo). As to conditions: 20 μM ATP, read-out: IC50 for c-KIT inhibition. The method, then:
The enzymatic activities of c-KIT were determined by in vitro kinase assays using the ADP-Glo reagent (Promega, Madison, WI, USA) according to the manufacturer’s instructions. Briefly, 250 ng of c-KIT protein was incubated with compounds in 10 μL of reaction buffer (40 mM Tris−HCl, pH 7.4, 2 mM MnCl2, 2 mM DTT, 20 mM MgCl2, 0.1 mg/mL bovine serum albumin, 1 mM Na3VO4) containing 20 μΜ ATP and 40 μM poly (Glu4-Tyr1) as substrates at 30 °C for 150 min. The ADP-Glo reagent was then added, and the mixture was incubated at 25 °C for 40 min. The kinase detection reagent was added for another 30 min at 25 °C. The converted ADP was determined by luminescence measurement using a Wallac Vector 1420 multilabel counter (PerkinElmer).
On the technique in general: In ADP-Glo the light output rises with the ADP produced.

In data set [7] the test system is HCT116 cells. In words: TUNEL staining. It is filed as cell-based, human. To be noted: varying concentrations. How it is done: The slides were immersed in 4% paraformaldehyde (pH 7.4) for 25 min at room temperature and then washed with PBS 3 times. The cells were immersed in 0.1% Triton X-100 solution prepared with PBS for 10 min (operation on ice) and then washed twice with PBS. Dilute 5× equilibration buffer with deionized water and 100 µL 1× equilibration buffer were added to each climbing tablet to cover the sample area to be tested, then incubated at room temperature for 15 min. […] The slides were placed in a wet box and incubated at 37 °C for 60 min. The wet box was wrapped with aluminum foil to avoid light. These were then washed three times with PBS with DAPI dripped and incubated in the dark for 5 min. The nucleus of the specimen was stained. Water-absorbent paper was used to absorb the liquid on the climbing sheet, then a sealing liquid containing an anti-fluorescence quenching agent was used to seal the film before the images were observed and collected under a fluorescence microscope.

Chain of c-KIT (P10721 26-976): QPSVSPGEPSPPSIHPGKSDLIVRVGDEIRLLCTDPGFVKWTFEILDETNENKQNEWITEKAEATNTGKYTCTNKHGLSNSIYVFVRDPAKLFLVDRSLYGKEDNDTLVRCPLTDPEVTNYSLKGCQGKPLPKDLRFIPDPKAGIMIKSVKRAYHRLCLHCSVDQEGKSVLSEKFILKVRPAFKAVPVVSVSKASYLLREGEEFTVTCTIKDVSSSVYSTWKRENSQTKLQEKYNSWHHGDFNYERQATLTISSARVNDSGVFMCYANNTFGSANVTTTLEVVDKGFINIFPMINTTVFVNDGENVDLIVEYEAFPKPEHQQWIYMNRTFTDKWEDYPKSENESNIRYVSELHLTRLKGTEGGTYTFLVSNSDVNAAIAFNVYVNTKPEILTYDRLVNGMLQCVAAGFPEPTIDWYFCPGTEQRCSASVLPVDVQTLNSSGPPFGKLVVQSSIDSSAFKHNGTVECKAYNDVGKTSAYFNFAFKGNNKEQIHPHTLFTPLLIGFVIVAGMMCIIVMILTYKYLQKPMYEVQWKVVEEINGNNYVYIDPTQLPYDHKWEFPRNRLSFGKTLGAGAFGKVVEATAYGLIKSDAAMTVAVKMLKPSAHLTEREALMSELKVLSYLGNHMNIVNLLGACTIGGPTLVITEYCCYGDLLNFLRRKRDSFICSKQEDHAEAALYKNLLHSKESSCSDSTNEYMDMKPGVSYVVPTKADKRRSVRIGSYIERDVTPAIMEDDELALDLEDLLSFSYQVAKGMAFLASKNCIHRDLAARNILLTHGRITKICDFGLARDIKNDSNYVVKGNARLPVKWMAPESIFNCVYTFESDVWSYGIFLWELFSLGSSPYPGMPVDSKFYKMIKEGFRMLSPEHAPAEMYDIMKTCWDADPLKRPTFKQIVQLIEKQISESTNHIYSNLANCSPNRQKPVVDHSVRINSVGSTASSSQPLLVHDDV

A word on the IC50: it is the concentration that gives 50% inhibition. As usually defined, the melting point is the temperature, or range, at which the solid turns liquid. As for `COc1cc(O)ccc1/C=C/C(=O)c1ccc(OCc2nnc(Nc3ccc(C(F)(F)F)cc3)o2)cc1` [Compound T4, (E)-3-(4-Hydroxy-2-methoxyphenyl)-1-{4-{{5-{[4-(trifluoromethyl)phenyl]amino}-1,3,4-oxadiazol-2-yl}methoxy}phenyl}propenone], the melting point lay in the range of 180.5 to 181.4 °C. Also, the concentration for half-maximal inhibition (IC50) in data set [1] lay in the range of 1.71 to 8.6 µM. In the data set with KU812, the 50% inhibitory concentration (IC50) is 8.09 ± 0.91 µM. Further, half-maximal inhibition with HT-29 (IC50) required 2870 ± 320 nM. In the data set on CCC-HIE-2, the “growth of CCC-HIE-2 cells” value is reported as “not significantly influenced”. Besides, in the data set on CCC-HIE-2 (CCC-HIE-2 vs HCT116), the “SI (selectivity index)” value stood at 16.1. Also, it took 27.6 ± 1.37 µM to reach half-maximal inhibition in the data set on CCC-HIE-2 (human embryonic intestinal mucosal derived cell line) (IC50). The compound further showed an IC50 in the data set with HCT116 of 1710 ± 460 nM. For the same compound, the cell colony number result with HCT116 cells [2] is on record as “decreased in a dose-dependent manner”. In addition, in the data set on HCT116 cells [3], the HCT116 cell migration entry was “strongly inhibited”. The same compound registered an IC50 with K562 of 8.6 ± 0.61 µM. The “generation and accumulation of ROS” value with HCT116 cells [4] was “concentration-dependent generation and accumulation of ROS”. Moreover, the “distribution of cell cycle phase (%): S” value with HCT116 cells [5] (5 μM, 48 h (control 28.0%)) stood at 16.8%. The “distribution of cell cycle phase (%): G0/G1” value in the data set with HCT116 cells [5] (5 μM, 48 h (control 54.7%)) is 65.1%. Also, the cell cycle arrest entry in the data set with HCT116 cells [5] (various concentrations, 48 h) is on record as “blocked the cell cycle in the G0/G1 phase”. Besides, in the data set with HCT116 cells [6] (1.25, 2.5, 5 μM), the “expression of the phosphorylated forms of Akt, MEK, Erk1/2, and mTOR” value is reported as “significantly downregulated”; the “protein expression levels of Akt, MEK, and Erk1/2” value is “not significantly altered”. Further, the “expression of caspase-3, as a percentage of GAPDH” value with HCT116 cells [6] (upregulated from 24% following T4 treatment (0-5 μM)) is given as 49%. For the same compound, the half-maximal inhibitory concentration (IC50) on c-KIT is 178 nM. Moreover, the “apoptotic cells (TUNEL red fluorescence)” value with HCT116 cells [7] is on record as “increase in apoptotic cells”.
